# Structures can show the parent of a compound that is named as a salt. Where two headings read alike, the source gives them in different places.
# Experiments:
# [1] = test system: human platelet-rich plasma; test: Platelet aggregation assay (Aggregation-Human PRP/ADP); assay type: cell-based; settings: human platelet-rich plasma incubated with compound 1 minute at 37° C., ADP-induced aggregation, read-out: Agg: Human PRP/ADP IC50uM
# Method in brief: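 Citrated human PRP (~200-400,000 platelets/μl) from healthy volunteers, stirred, incubated with compound 1 min at 37° C. Aggregation was then triggered, most often by ADP 5 μM, or by 1 μg/ml collagen, 1 μM U46619 or 0.3 μM platelet activating factor, and read in an aggregometer with platelet-poor plasma as reference.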
# GPIIb-IIIa = biological target: T1, GPIIb-IIIa (Homo sapiens, UniProt P05106+P08514); test: ELISA IIb-IIIa assay (fibrinogen binding to immobilized GPIIb-IIIa); settings: purified platelet GPIIb-IIIa receptor coated on ELISA plates; biotin-labeled fibrinogen 10 nM, 3 hours at 25° C.
# T1 construct: Purified platelet GPIIb-IIIa receptor was prepared as described by Fitzgerald; from tissue; host or cells: platelets
# T1 sequence (P08514 32-887 limits assumed): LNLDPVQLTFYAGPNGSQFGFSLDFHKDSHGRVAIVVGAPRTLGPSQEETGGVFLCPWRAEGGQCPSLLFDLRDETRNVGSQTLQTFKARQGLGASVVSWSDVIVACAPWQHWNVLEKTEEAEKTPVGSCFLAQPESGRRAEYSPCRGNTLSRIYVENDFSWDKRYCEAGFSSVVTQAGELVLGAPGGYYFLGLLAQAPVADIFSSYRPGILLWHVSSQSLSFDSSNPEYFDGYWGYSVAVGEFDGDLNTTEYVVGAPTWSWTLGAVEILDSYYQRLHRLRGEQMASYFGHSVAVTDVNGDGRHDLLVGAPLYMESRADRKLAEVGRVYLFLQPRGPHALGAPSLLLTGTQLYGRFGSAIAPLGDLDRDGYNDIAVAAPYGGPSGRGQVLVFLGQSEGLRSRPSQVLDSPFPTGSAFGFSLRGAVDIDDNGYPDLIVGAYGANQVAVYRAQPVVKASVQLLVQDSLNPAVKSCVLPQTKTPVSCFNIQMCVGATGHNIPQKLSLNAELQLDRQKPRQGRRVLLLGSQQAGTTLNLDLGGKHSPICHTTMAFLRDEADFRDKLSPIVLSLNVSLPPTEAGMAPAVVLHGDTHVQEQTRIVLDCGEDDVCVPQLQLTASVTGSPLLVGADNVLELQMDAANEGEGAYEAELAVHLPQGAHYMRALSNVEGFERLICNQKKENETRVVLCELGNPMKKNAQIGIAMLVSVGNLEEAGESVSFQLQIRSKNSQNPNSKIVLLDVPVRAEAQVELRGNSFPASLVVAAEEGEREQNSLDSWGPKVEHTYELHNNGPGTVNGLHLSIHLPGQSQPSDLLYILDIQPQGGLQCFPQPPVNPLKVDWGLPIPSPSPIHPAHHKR
# T1 sequence (P05106 27-788): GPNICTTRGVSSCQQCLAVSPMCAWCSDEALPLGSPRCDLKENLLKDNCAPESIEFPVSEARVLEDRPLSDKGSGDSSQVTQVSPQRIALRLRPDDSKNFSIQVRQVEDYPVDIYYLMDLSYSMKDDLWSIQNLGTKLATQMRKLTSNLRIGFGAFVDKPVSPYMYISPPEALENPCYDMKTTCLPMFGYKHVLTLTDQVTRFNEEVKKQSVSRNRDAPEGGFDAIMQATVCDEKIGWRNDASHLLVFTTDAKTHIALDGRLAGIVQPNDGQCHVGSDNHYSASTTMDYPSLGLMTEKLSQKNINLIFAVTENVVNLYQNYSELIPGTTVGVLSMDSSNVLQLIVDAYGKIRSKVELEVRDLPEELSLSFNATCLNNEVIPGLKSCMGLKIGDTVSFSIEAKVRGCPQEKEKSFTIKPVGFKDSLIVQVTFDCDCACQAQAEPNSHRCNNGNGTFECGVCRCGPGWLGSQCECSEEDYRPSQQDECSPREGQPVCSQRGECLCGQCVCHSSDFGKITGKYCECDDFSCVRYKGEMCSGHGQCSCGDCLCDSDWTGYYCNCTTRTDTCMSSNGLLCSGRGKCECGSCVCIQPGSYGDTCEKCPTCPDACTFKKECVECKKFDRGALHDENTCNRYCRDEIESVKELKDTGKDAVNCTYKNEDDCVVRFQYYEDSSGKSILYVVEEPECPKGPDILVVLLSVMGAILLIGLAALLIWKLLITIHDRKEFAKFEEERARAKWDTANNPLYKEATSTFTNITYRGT
# Method in brief: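 Purified platelet GPIIb-IIIa was coated overnight at 4° C in Tris/NaCl/CaCl2 pH 7.4 and BSA-blocked. Biotinylated fibrinogen (10 nM final) was incubated with test compounds for 3 h at 25° C in Ca2+-containing binding buffer. Bound ligand was detected by anti-biotin–alkaline phosphatase with pNPP, OD 405.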
Compound,melting point,IC50 ([1]; 1 min),IC50 (GPIIb-IIIa),IC50 [1]
N=C(N)c1ccc(C(=O)Nc2ccc3c(c2)CCC(CC(=O)O)C3=O)s1 (stereo not drawn) [Example 106],205 to 208 °C (dec.),–,–,–
"CCCCCC(CC(=O)O)N1CCc2cc(OCc3ccc(C(=N)N)cc3)ccc2C1=O (racemic) [Example 12, (+−)-6-[[4-(Aminoiminomethyl)phenyl]methoxyl]-3,4-dihydro-1-oxo-b-pentyl-2(1H)-isoquinolinepropanoic Acid Trifluoroacetate]",–,0.57 µM,24 nM,–
"O=C(O)CC1CCc2cc(NC(=O)/C=C/C3CCNCC3)ccc2O1 (racemic) [Example 78, rac-(3,4-Dihydro-6-(N-(3-(piperidine-4-yl)propenoyl)amino)-2H-1-benzopyran-2-yl)acetic Acid]",–,0.18 µM,20 nM,–
"N=C(N)c1ccc(COc2ccc3c(c2)CCN(C(CC(=O)O)c2ccccc2)C3=O)cc1 (racemic) [Example 16, (+−)-6-[[4-(Aminoiminomethyl)phenyl]methoxy]-3,4-dihydro-1-oxo-b-phenyl-(1H)-isoquinoline Propanoic Acid Trifluoroacetate]",–,0.2 µM,7 nM,–
"CCOC(=O)CC1CCc2cc(NC(=O)c3ccc(C(=N)N)cc3)ccc2O1 (racemic) [Example 47, Hydrochloride]",–,0.24 µM,770 nM,–
"N=C(NCc1ccccc1)c1ccc(C(=O)Nc2ccc3c(c2)CCC(CC(=O)O)O3)cc1 (racemic) [Example 93, rac-(3,4-Dihydro-6-(N-(4-(N′-(phenylmethylamino)iminomethyl)benzoyl)amino)-2H-1-benzopyran-2-yl)acetic Acid]",–,0.086 µM,9.4 nM,–
"CCC(CC(=O)O)N1CCc2cc(OCc3ccc(C(=N)N)cc3)ccc2C1=O (racemic) [Example 14, (+−)-6-[[4-(Aminoiminomethyl)phenyl]methoxy]b-ethyl-3,4-dihydro-1-oxo-2(1H)-isoquinoline Propanoic Acid Trifluoroacetate]",–,0.4 µM,45 nM,–
"(+−)-6-[[4-(Aminoiminomethyl)phenyl]methoxy]-3,4-dihydro-1-oxo-beta-(1,4-dioxyhexyl)-2(1H)-isoquinoline Propionoic Acid Trifluoroacetate [Example 13]",–,–,100 nM,0.68 µM

# From patent publication US6448269B1 (Eli Lilly and Company, priority 1993, dated 2002)
